For orientation: melting point means the temperature, or range, at which the solid turns liquid. `C[C@@H]1N=C(c2ccccc2)c2cc(I)ccc2N(C)C1=O` gave a melting point of 115 °C.

In the case of `CC1(C)CCC(C)(C)c2cc(C(=O)Nc3ccccc3)ccc21`, the melting point was in the range of 144 to 146 °C. The value for `O=Cc1cccc(-c2nnc(-c3ccc(C(F)(F)F)cc3)o2)c1` was 129 to 130 °C; that for `CCC(C)(C)n1nnnc1S` was 104 to 106 °C; that for `CC(=O)c1ccc(-n2c(-c3sc(Nc4ccccc4)nc3-c3ccccc3)nc3ccccc3c2=O)cc1` was 223 to 225 °C. The value for `C=CC/C=C(\C(=O)O)c1cc(OC)c(O)c2c(Cc3ccccc3)cccc12` was 156 to 158 °C; that for `C#CCNC(=C[N+](=O)[O-])NCCSCc1csc(NC(=N)N)n1` was 82 to 90 °C; that for `CCOC(=O)C(=CNc1ccc(OC)c(=O)cc1)C(=O)OCC` was 108 to 110 °C.

Turning to `CC(C)(C)c1cc(N2CCN(C(=O)c3ccc(N)cc3)C2=O)cc(C(C)(C)C)c1O`, the melting point is over 260 °C. In turn, `Cc1ccc(Nc2c(F)cccc2Cl)c(CC(=O)O)c1` yielded a melting point of 152 to 154 °C. Molecule `COc1ccc(CN(C)CCOc2ccc(NC(=O)c3cccc4c(=O)c5cccc(OC)c5[nH]c34)c(C)c2)cc1OC` yielded a melting point of 178 to 179 °C. Next, `COc1cc2c(cc1OC)CN(CCCSc1ccc(NC(=O)c3cccc4c(=O)c5cccc(C)c5[nH]c34)cc1)CC2`: 155 °C; `N#Cc1ccc2oc(CCCCCc3cc4cc(C#N)ccc4o3)cc2c1`: 133 to 134 °C; `CCOC(=O)c1c(N)sc2c1CN(C(=O)OCC)C2`: 154 to 156 °C. The value for `Cc1c(Sc2cc(Cl)c(Cl)cc2Cl)cc(C(C)(C)C)c(O)c1C(=O)Nc1ccc([N+](=O)[O-])cc1C(F)(F)F` was 179 to 180 °C; that for `CCOC(=O)CNc1nc(Cl)ccc1[N+](=O)[O-]` was 77.5 to 80 °C; that for `CC(=O)N1CCC(CCC(=O)c2ccc(F)cc2)CC1` was 95 to 96 °C. As for `COc1cc2c(cc1OC)N(C)C(=O)CN=C2c1cccnc1`, the melting point lay in the range of 177 to 179 °C.

Take `COc1nc(O)nc(C)c1Cl`: the melting point came to 235 °C. On to `COc1ccc(Cc2nnc(N[C@H]3CO[C@H](C(C)C)OC3)c3ccccc23)cn1`, for which the melting point lay in the range of 186 to 187 °C. Molecule `CC(=O)N(C#N)Cc1ccccc1` gave a melting point of 42 °C. The value for `COc1cc2ncnc(N3CCc4ccc(N)cc43)c2cc1OC` was 215 to 218 °C. Take `CCOC(=O)c1c(N(CC)CC)c2ccc(C)nc2n(CC)c1=O`: the melting point lay within 79 to 82 °C. The value for `CC(=O)OCC(=O)C1(O)C(C)CC2C3CCC4=CC(=O)C=CC4(C)C3=CCC21C` (stereo not given) was 202 to 205 °C; that for `COC(=O)C(C)Oc1ccc(COc2ccc(Cl)cc2Cl)cc1` (stereo not given) was 64 °C.

In turn, `Cc1[nH]c(=O)[nH]c1C(=O)CC(C)C` had a melting point of 232 to 233 °C. The value for `O=C1NC(=O)C(Cc2ccc(OCCn3ncc4ccccc4c3=O)cc2)S1` (stereo not given) was 165 °C; that for `NC(=O)c1ccc(C(=O)C=C(c2cc(Cl)cc(Cl)c2)C(F)(F)F)cc1` was 156 to 160 °C; that for `C=C(C)C(=O)NCC(=O)O` was 104 °C.

Take `Clc1ccc2onc(CBr)c2c1`: the melting point is 83 to 85 °C. Molecule `OCc1ccc(-c2cc3c(NCc4cccc(Cl)c4)ncnc3[nH]2)cc1` returned a melting point of 296 to 298 °C. The value for `CN(C)C1CCCN(C(=O)c2ccc(-c3[nH]nc4c3C(=O)c3c(NC(=O)NN5CCOCC5)cccc3-4)s2)C1` (stereo not given) was over 300 °C; that for `C(#Cc1ccc2[nH]ccc2c1)CCN1CC=C(c2ccccc2)CC1` was 173 to 174 °C; that for `Cc1c(-c2ccc(O)cc2)n(C(=O)c2ccc(OCCN3CCCCC3)cc2)c2ccc(O)cc12` was 127 to 130 °C. The value for `O=C(Nc1nccs1)c1c([C@@H]2CCCN2)nc2c(C(F)(F)F)cccc2c1O` was 196 °C. Next, `O=C(O)CN1CC(=O)N(Cc2ccc(Cl)c([N+](=O)[O-])c2)C1=O`: 167 to 168 °C; `COC(=O)c1cc(OC)c(OC)c(OC)c1-c1c(C(=O)OC)cc2c(c1OC)OCO2`: 109 to 110 °C. As for `COc1ccc2cc(Nc3ccc(OCc4ccccc4)cc3)ccc2c1`, the melting point was in the range of 155 to 157 °C. The molecule `Nc1c(F)c(N2CC3NCCOC3C2)c(F)c2c1c(=O)c(C(=O)O)cn2C1CC1F` (stereo not given) gave a melting point of 292 to 294 °C. Next, `CONC(=O)Cc1c(C)n(C(=O)c2ccc(Cl)cc2)c2ccc(OC)cc12`: 184 to 185 °C; `CC(=O)O[C@H]1CC[C@H](c2ccc(CCl)cc2)CC1`: 87 to 89 °C; `CC(C)(C)OC(=O)OCC(COC(=O)OC(C)(C)C)OCn1cnc2c(=O)[nH]c(N)nc21`: 192 to 193 °C. The value for `CCN1CCC(C2CCN(C(=O)OCc3ccccc3)CC2)CC1` was 93 to 96 °C. As to `CN1CCC(O)(C2SCCCS2)CC1`, the melting point is 115 to 120 °C.

Consider `Cc1c(N)cccc1-c1cn(C)c(=O)c(Nc2ccc(C(=O)N3CCOCC3)cc2)n1`, for which the melting point was 274 to 275 °C. Next, `C1CC2CNCCNCCNCCNCC(C1)N2`: 90 to 90.5 °C; `Nc1ccc(C(=O)NC2CCN(c3ccccc3)C2)cc1` (stereo not given): 213 to 216 °C; `CC1CSc2c(-c3ccccc3)c3ccccc3c(=O)n21` (stereo not given): 204 to 208 °C. Next, `CCC(OC(C)=O)C(=O)Nc1ccc(I)cc1Cl` (stereo not given): 156 to 158 °C; `CSCC[C@H](NC(=O)Cc1cc(F)cc(F)c1)C(=O)N[C@@H]1C(=O)Nc2ccccc2S[C@@H]1c1ccccc1`: 85 to 90 °C. The molecule `O=C1Cc2cc(NC(=O)C(=O)N3CCC(Oc4ccc(Cl)cc4)CC3)ccc2N1` displayed a melting point of 194 to 196 °C. In turn, `COc1ccc(C2CN(C)C(=O)O2)cc1OC` (stereo not given) showed a melting point of 132 to 133 °C. As to `O=C1CCN(CC(c2ccccc2)c2ccccc2)CC1`, the melting point fell in the range of 140 to 142 °C. For `N#Cc1cnc2cnc(Cl)cc2c1Nc1cccc(Br)c1`, the melting point is 220 to 223 °C.

Take `CCOC(=O)CC12CC1CCCC2=O` (stereo not given): the melting point is 154 to 156 °C. `Nc1ccc(C(=O)N2CCC[C@@H]3CCCC[C@H]32)cc1[N+](=O)[O-]` (relative stereo) yielded a melting point of 212 to 215 °C. As to `NC(=O)COc1ccc(OCCn2ccnc2)cc1`, the melting point was 123 to 124 °C. The value for `CCCCc1c(-c2ccncc2)[nH]c(-c2ccncc2)c1C(C)=O` was 93 to 95 °C; that for `CN(c1ccccc1)S(=O)(=O)N[C@@H](Cc1ccc(NC(=O)c2c(Cl)cccc2Cl)cc1)C(=O)O` was 117 °C.

Molecule `CCCCOc1ccc(SCCSc2ccc(OCCCC)cc2)cc1` yielded a melting point of 102 to 103 °C. In turn, `O=C(Nc1ccc2c(c1)OCO2)c1ccccc1` showed a melting point of 110 to 112 °C.

`CCOc1ncc(C(C)=O)cc1C(=O)O` yielded a melting point of 117 to 118 °C. The value for `Cc1ccc(Cc2cnc(NCCCNc3ncc(Cl)cc3Cl)[nH]c2=O)cn1` was 147 to 148 °C; that for `CNC(=O)c1cccc(C=O)c1` was 101 to 102 °C; that for `OCc1nnc(-c2cc3c(OC[C@@H](O)CN4CCC(c5ccc(Cl)c(Cl)c5)CC4)cccc3o2)o1` was 158 to 160 °C. In turn, `COc1ccc2c(c1OC)CCC1CN(C(=O)CCc3ccc([N+](=O)[O-])cc3)CC21` (stereo not given) came in with a melting point of 231 to 234 °C. Next, `Cc1cccc2nnc(-c3ccccc3)c(O)c12`: 215 to 217 °C; `COc1c(Cl)cc(C(C)(C)N(CC(C)=O)C(=O)Cc2ccccc2)cc1Cl`: 126 to 127 °C. `COc1ccc2c(c1)CC1=C2NN(C(=O)OC(C)(C)C)C1c1cccs1` (stereo not given) registered a melting point of 163 to 165 °C. Next, `O=[N+]([O-])c1oc2ccccc2c1Br`: 130 to 132 °C; `CC(=O)ON=C(O)c1cc(C(O)=NCCO)c(C(=O)O)cc1C(=O)O`: 194 to 195 °C.

Turning to `O=C(N[C@H]1C[C@H](C(=O)O)Nc2cc(Cl)cc(Cl)c21)C1c2ccccc2-c2ccccc21` (relative stereo), the melting point was 266 to 268 °C.

In turn, `CS(=O)(=O)c1ccc(/C(=C\CC2CCCC2)C(=O)O)cc1` had a melting point of 162 to 165 °C. As for `O=c1oc(-c2ccccc2)cc(O)c1SCc1cccc(Oc2ccccc2)c1`, the melting point lay within 131 to 133 °C.

Consider `COC(=O)COc1cccc2c(CNS(=O)(=O)CCOc3ccccc3)coc12`, for which the melting point is 83 to 84 °C.

`COC(=O)CCC(=O)Nc1ccc2c(=O)n3c(nc2c1)C(=Cc1ccccc1)CC3` yielded a melting point of 288 to 291 °C. Next, `Cn1nnnc1-c1ccc2c(c1)S(=O)(=O)c1ccccc1C2=O`: 270 to 271 °C.

The molecule `COC(=O)c1ccc(I)c2c(=O)c3ccccc3[nH]c12` came in with a melting point of 189 to 191 °C. The value for `COc1cc(N)c(Cl)cc1C(=O)NCC1CCN(CCS(=O)(=O)Cc2ccccc2)CC1` was 220 to 223 °C.

In the case of `CCC(C#N)(CC)c1nsc2ccc(-n3c(=O)cc(C(F)(F)F)n(C)c3=O)cc12`, the melting point was in the range of 76 to 78 °C. Next, `O=C(Nc1ccc(OCCCBr)cc1)c1cccc2c(=O)c3ccccc3[nH]c12`: 126 °C; `Cc1cc(C)c2nc(C3CC3)n(Cc3ccc(C(CC(=O)O)c4ccccc4)cc3)c2n1` (stereo not given): 189 to 190 °C; `O=c1c(C(F)(F)F)cn(C2CC(O)C(CO)O2)c(=O)n1C1CCCO1` (stereo not given): 127 to 128 °C. Molecule `CC(C(=O)Nc1ccc2c(c1)CC(=O)N2)N1CCC(Cc2ccccc2)CC1` (stereo not given) had a melting point of 153 to 155 °C. Next, `Clc1cc(CC2(Cc3ccnc(Cl)c3)c3ccccc3-c3ncccc32)ccn1`: 188 to 190 °C; `CCCCCc1c(C(C)C)nc(C(C)C)c(CO)c1-c1ccoc1`: 98 to 100 °C; `CCOC(=O)CCCn1cc(C(=O)c2ccc(N)c(OCCCCl)c2)c2ccccc21`: 93 to 95 °C. The value for `CCN1CCC(O)(c2cccc(F)c2F)C1` (stereo not given) was 119 to 120 °C. The value for `CC(C)(C)N1Cc2ccccc2P1(=O)c1ccccc1` (stereo not given) was 89 to 91 °C. As to `Cc1ccc(-c2ccc(C)c(CN3CCN(C(c4ccccc4)c4ccccc4)CC3)c2)cc1`, the melting point came out at 177 °C.

The record behind these values is a melting point compilation (Tetko et al.; mined from patent text by program, amines drawn as free bases though some values may be those of a salt).
